The source made the active and inactive calls.
Assays:
[1] = target: T1, Adenosylmethionine-8-amino-7-oxononanoate aminotransferase (Mycobacterium tuberculosis, UniProt P9WQ81); experiment: Mycobacterium tuberculosis BioA enzyme inhibitor Measured in Biochemical System Using Plate Reader - 2163-02_Inhibitor_Dose_CherryPick_Activity.; type: functional, Mycobacterium tuberculosis UT205
T1 sequence (P9WQ81 whole entry): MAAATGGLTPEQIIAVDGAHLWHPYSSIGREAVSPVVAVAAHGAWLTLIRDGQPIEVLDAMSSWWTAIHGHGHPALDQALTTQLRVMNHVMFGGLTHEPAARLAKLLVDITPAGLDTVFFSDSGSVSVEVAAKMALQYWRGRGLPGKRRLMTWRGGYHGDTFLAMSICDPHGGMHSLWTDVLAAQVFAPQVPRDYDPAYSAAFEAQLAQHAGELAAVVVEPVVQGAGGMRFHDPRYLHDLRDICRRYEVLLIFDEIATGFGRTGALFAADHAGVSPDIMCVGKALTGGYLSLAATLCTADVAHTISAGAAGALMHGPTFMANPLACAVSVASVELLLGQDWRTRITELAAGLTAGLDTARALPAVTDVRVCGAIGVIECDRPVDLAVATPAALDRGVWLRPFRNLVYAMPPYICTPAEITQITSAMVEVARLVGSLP

Genome polyprotein = Genome polyprotein (dengue virus type 2, UniProt P29990); experiment: Dengue-2 NS5 methyltransferase inhibitors, primary screen, biochemical, confirmation dose response (AID 588689); type: functional
Chain of Genome polyprotein (P29990 2492-3391 limits assumed): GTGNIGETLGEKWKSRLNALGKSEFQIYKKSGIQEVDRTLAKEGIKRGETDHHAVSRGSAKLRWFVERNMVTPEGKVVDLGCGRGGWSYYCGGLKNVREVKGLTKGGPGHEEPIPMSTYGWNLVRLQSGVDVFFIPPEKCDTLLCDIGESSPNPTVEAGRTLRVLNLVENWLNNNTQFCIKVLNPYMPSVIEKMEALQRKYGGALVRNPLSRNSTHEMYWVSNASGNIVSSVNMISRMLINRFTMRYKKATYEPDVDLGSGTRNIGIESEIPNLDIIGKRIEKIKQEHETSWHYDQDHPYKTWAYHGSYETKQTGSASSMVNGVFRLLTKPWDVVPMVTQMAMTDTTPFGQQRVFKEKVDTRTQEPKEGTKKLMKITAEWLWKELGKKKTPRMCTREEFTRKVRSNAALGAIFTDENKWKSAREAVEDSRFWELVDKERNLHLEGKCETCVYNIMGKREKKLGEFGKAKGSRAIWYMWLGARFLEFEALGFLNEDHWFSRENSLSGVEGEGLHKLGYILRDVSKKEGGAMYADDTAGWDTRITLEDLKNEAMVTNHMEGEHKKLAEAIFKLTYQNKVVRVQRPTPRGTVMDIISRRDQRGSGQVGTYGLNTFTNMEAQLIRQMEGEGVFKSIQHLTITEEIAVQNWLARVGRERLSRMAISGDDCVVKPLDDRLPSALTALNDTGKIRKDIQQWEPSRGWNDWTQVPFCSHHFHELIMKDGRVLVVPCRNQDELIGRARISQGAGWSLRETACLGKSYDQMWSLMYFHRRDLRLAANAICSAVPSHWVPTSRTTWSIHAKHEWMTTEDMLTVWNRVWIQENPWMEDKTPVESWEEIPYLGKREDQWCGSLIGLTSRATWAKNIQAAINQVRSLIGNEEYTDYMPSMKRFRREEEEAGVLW

[2] = target: Heat shock protein HSP 90-alpha (Homo sapiens, UniProt P07900); type: functional, organism-based
[3] = target: T2, High affinity choline transporter 1 (Homo sapiens, UniProt Q9GZV3); experiment: CHT inhibitors, dose response, cell-based, 5-point CRC, membrane potential dye (AID 504840); type: functional
T2 sequence (Q9GZV3 whole entry): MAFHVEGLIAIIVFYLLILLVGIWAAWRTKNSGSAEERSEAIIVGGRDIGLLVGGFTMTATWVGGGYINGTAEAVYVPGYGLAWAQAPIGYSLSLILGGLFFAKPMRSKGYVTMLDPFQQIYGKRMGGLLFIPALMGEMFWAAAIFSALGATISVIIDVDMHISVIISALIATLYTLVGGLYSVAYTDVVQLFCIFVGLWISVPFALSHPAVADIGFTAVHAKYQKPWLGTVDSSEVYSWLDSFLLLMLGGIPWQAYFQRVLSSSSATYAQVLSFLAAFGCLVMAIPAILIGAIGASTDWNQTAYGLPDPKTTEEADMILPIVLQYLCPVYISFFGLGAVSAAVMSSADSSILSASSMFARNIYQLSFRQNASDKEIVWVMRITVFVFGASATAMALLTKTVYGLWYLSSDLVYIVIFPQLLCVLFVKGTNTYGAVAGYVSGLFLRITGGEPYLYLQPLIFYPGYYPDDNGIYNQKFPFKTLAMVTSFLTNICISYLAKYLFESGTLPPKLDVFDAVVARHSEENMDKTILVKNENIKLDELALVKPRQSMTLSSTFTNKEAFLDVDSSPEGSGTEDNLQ

[4] = growth suppression of beta-catenin-knockout colon cells, dose response, cell-based, HCT116, human colon tumor (AID 1045); type: functional;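 note: HCT116 colon tumor cells with beta catenin knocked out; cells exposed to compound for 60 hours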
[5] = growth suppression of PTEN-null colon cells, dose response, cell-based, HCT116 PTEN knockout (AID 1047); type: functional;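 note: HCT116 colon tumor cells with PTEN knocked out; cells exposed to compound for 60 hours before readout; potency for loss of cell viability measured by luminescence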
[6] = target: Glyceraldehyde-3-phosphate dehydrogenase (Homo sapiens, UniProt P04406)
Chain of Glyceraldehyde-3-phosphate dehydrogenase (P04406 whole entry): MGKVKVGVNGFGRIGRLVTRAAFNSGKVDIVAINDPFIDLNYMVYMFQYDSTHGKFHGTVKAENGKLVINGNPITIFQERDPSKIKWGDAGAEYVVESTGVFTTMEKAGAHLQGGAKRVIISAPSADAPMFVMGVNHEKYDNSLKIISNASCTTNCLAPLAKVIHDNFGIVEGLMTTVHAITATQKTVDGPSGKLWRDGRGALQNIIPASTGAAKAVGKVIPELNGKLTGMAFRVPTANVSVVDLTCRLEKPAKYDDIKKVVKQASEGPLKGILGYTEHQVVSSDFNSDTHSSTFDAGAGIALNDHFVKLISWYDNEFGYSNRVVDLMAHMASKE

SN12K1 = experiment: cells; type: functional; details: Homo sapiens
P388 = experiment: cells; type: functional; details: Mus musculus
P388/ADR = experiment: cells; type: functional; details: Mus musculus
[7] = target: Luciferin 4-monooxygenase (Photinus pyralis, UniProt P08659); experiment: firefly luciferase enzyme inhibitors, dose response, biochemical, luminescence (AID 1891)
Chain of Luciferin 4-monooxygenase (P08659 whole entry): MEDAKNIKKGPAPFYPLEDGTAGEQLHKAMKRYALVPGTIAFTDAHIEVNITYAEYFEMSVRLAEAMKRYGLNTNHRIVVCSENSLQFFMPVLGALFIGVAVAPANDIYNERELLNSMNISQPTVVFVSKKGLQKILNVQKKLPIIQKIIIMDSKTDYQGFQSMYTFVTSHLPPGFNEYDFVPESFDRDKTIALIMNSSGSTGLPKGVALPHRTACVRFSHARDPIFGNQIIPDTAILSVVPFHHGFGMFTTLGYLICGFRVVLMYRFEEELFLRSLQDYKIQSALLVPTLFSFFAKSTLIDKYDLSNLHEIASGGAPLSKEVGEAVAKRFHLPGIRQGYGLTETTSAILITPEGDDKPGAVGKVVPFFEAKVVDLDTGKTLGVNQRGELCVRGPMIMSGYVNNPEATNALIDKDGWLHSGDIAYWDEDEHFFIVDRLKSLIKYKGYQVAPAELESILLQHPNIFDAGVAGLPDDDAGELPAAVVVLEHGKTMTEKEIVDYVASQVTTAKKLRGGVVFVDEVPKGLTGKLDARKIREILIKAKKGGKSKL

Protein skinhead-1 = target: T3, Protein skinhead-1 (Caenorhabditis elegans, UniProt P34707); type: functional
T3 sequence (P34707 whole entry): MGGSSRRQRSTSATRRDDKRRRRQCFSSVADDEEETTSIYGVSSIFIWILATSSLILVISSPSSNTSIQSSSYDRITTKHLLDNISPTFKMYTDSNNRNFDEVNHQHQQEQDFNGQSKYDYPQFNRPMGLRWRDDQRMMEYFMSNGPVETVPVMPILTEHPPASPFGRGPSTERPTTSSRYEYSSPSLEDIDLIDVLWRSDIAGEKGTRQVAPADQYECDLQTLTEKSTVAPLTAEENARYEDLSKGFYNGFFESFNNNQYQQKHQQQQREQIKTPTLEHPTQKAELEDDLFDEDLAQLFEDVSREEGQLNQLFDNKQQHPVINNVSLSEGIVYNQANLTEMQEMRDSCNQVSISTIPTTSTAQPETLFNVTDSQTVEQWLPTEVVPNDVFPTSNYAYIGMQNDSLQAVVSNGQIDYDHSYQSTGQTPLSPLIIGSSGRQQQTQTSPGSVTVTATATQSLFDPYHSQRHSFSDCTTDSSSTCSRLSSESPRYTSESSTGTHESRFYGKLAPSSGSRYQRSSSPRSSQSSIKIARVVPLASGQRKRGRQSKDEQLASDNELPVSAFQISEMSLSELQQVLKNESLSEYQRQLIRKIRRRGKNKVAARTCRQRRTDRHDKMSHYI

[8] = Luminescence Cell-Based Dose Confirmation HTS to Identify Inhibitors of Platelet Dense Granule Release. [Related pubchem assays: 1663 (Primary HTS), 1678 (Summary of Project)]; type: functional
[9] = MC4R antagonists, dose response, counter-screen for LGR2 antagonist project, cell-based, plate reader, cherry pick (AID 743444); type: functional;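 note: transfected HEK 293 cells stimulated with alpha-MSH peptide; potency of inhibitors of the alpha-MSH evoked signal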
[10] = LGR2 antagonists, dose response, cell-based, HEK293, CRE-luciferase reporter, cherry pick, set 2 (AID 743343); type: functional;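 note: transfected cells were stimulated with diluted bursicon conditioned medium after compound addition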
Streptokinase A = target: T4, Streptokinase A (Streptococcus pyogenes serotype M1, UniProt P10520); experiment: S. pyogenes streptokinase expression inhibitors, potency, dose response, plasminogen activation absorbance, OD405 (AID 1914); type: functional, Streptococcus pyogenes M1 GAS;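 note: secreted streptokinase activity via plasminogen activation per viability signal from cell pellet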
T4 sequence (P10520 whole entry): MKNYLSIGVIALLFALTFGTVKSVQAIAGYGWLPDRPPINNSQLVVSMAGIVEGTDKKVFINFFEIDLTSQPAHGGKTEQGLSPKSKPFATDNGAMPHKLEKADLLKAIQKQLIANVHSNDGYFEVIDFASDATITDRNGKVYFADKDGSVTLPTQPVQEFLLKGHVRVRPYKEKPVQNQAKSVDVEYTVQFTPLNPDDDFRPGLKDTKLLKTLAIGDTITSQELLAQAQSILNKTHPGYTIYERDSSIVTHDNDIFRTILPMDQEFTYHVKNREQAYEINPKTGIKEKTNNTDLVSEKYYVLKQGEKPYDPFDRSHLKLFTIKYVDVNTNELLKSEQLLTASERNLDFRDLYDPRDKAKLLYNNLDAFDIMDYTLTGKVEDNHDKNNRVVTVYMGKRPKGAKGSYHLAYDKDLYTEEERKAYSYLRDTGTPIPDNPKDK

[11] = inhibitors of intracellular T. cruzi replication, confirmation, NIH3T3 host cells, beta-gal luminescence (AID 2044); type: functional, cell-based;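 note: intracellular parasites grown in NIH/3T3 mouse fibroblasts as host cells; luminescent beta-galactosidase reporter signal from transgenic T. cruzi replicating inside host cells; inhibitors lower the luminescence signal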
Nonstructural protein 1 = Nonstructural protein 1 (Influenza A virus, UniProt Q194T2); type: functional, Influenza A virus (A/California/07/2009(H1N1))
Chain of Nonstructural protein 1 (Q194T2 whole entry): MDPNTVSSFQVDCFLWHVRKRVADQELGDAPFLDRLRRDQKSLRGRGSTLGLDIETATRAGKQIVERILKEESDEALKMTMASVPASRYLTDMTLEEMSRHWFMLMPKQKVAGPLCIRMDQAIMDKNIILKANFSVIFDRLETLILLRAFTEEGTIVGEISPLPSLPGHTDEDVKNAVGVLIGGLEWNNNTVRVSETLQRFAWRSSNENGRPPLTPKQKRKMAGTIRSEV

[12] = cytotoxicity toward NIH3T3 fibroblasts, dose response, counter-screen, cell-based, ATP luminescence, mouse fibroblasts (AID 2010); type: functional;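 note: cells exposed to compound for about 90 hours before reading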
[13] = test system: Streptococcus sp. 'group A'; experiment: growth inhibition of control SK(-) GAS strain, dose response, counter-screen for streptokinase expression inhibitor project, luminescence, kanamycin, BacTiterGlo, confirmation (AID 1900); type: functional, organism-based
Streptococcus = experiment: Group A Streptococcus viability loss, dose response, counter-screen for streptokinase expression inhibitor project, luminescence, BacTiterGlo (AID 1915); type: functional, organism-based;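 note: potency for reduction of bacterial viability or growth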

Cc1nc2nc(SCC(=O)NCCCN3CCOCC3)nn2c(C)c1Cc1ccccc1
AC50 [1]: 5.43 µM (active)

O=C(O)c1cccc(NS(=O)(=O)c2ccc(-c3ccc(S(=O)(=O)Nc4cccc(C(=O)O)c4)cc3)cc2)c1
IC50 (Genome polyprotein): 49.5 µM (active)

O=C(c1ccc(-c2ccccc2)cc1)C1CCCN(C(=O)c2cncs2)C1 (stereo not drawn)
AC50 [2]: 4.29 µM (active)

COc1ccc(-n2c(C)cc(C(=O)CSc3nnc(-c4ccoc4C)n3C)c2C)cc1
IC50 [3]: 13.8 µM (active)

COc1ccc2nc(Nc3nc4ccc(NC(C)=O)cc4s3)sc2c1
EC50 [4]: 14 µM (active)
EC50 [5]: 16.9 µM (active)

CN1C(=O)NC(=O)/C(=C/c2ccc(C(=O)O)cc2)C1=O
IC50 (Genome polyprotein): 85.1 µM (active)

CC(Oc1ccc2c(-c3ccccc3)cc(=O)oc2c1)C(=O)NCc1ccccn1 (stereo not drawn)
AC50 [1]: 8.99 µM (active)

O=C(O)C1Nc2ccccc2S(=O)(=O)N1 (stereo not drawn)
IC50 [6]: > 100 µM (not active)

COc1ccc(-n2cc(-c3ccccc3)c3c(N4CCN(CCO)CC4)ncnc32)cc1
EC50 [4]: 30.3 µM (active)
EC50 [5]: 32.8 µM (active)

COc1ccc2c(c1)-c1nn(CCCN(C)C)c3ccc([N+](=O)[O-])c(c13)N2
GI50 (SN12K1): 0.119 µM (active)
GI50 (P388): 0.163 µM (active)
GI50 (P388/ADR): 0.281 µM (active)

O=C(/C=C/Nc1ccc(Oc2ccccc2)cc1)c1ccco1
EC50 [7]: 0.617 µM (active)
IC50 (Protein skinhead-1): > 100 µM (inactive)
EC50 [8]: 1.64 µM (active)

O=C(CSc1nncs1)N1c2ccccc2Sc2ccccc21
AC50 [1]: 1.56 µM (active)

Cc1ccc(-c2nnc(-c3ccccc3Br)o2)cc1
AC50 [9]: 20.3 µM (active)
AC50 [10]: 14.3 µM (active)

Cn1cccc1C(=O)Nc1nc(-c2ccccn2)cs1
EC50 (Streptokinase A): > 150 µM (not active)
EC50 [11]: 2.28 µM (active)
IC50 (Nonstructural protein 1): 11 µM (active)
EC50 [12]: 4.47 µM (active)
EC50 [13]: 18.4 µM (active)
EC50 (Streptococcus): 58.3 µM (active)

COc1ccc2oc(/C=C/N(C)C)c(C(=O)c3ccc(Cl)cc3)c2c1
AC50 [2]: 3.8 µM (active)

CCOC(=O)C1CCN(Cc2c(O)oc3ccccc3c2=O)CC1
IC50 [3]: 6.91 µM (active)

Source: ChEMBL document CHEMBL1201862, “PubChem BioAssay data set” (2004)
